Measured values taken from patent US9034831B2, “Pharmaceutical composition for a hepatitis C viral protease inhibitor” (Boehringer Ingelheim International GmbH, priority 2009, dated 2015).
Counter-ions that a name gives are not always drawn.

Assay: Solubility of drug substance in the compositions as a function of temperature
Type: physicochemical
Conditions: in the compositions of the invention

solubility (temperature dependence): increases as the temperature decreases
Compound: C=C[C@@H]1C[C@]1(NC(=O)[C@@H]1C[C@@H](Oc2cc(-c3csc(NC(=O)C(C)C)n3)nc3c(Br)c(OC)ccc23)CN1C(=O)[C@@H](NC(=O)OC1CCCC1)C(C)(C)C)C(=O)O [Compound (1) sodium salt]
